Patent publication US20250339567A1, “COMPOUNDS WITH IMPROVED PHARMACOKINETICS FOR IMAGING AND THERAPY OF CANCER” (priority 2019, published 2025)
Starred links: 1 amine or outer side, 2 acyl side, 3 side chain; linkers in the order of their positions; H or OH if unused. Non-standard residues stand in square brackets, D forms with d. Residues, ends and D or L forms follow the SMILES beside them. *: point of attachment. DOTA = O=C(O)CN1CCN(CC(=O)O)CCN(CC(=O)*)CCN(CC(=O)O)CC1; αMeW = C[C@](N)(Cc1c[nH]c2ccccc12)C(=O)O; Sta = CC(C)C[C@H](N)[C@@H](O)CC(=O)O; Bta = N[C@@H](Cc1csc2ccccc12)C(=O)O; Gly(cPent) = N[C@H](C(=O)O)C1CCCC1; Trx = NC[C@H]1CC[C@H](C(=O)O)CC1; X1 = O=C(CN1CCC(N[*:1])CC1)[*:2]; Chg = N[C@H](C(=O)O)C1CCCCC1; dOrn = NCCC[C@@H](N)C(=O)O; hSer = N[C@@H](CCO)C(=O)O; Nle = CCCC[C@H](N)C(=O)O; dDap = NC[C@@H](N)C(=O)O; βAla = NCCC(=O)O; Sar = CNCC(=O)O

Columns and labels:
[1] = target: T1, GRPR (Homo sapiens, UniProt P30550); assay: Determination of GRPR affinity (IC50), competition with [D-3-[125I]I-Tyr6]MJ9 on PC-3 cells; format: binding; conditions: IC50 ± SD (n = 3), Table 3, [D-3-[125I]I-Tyr6]MJ9 (c = 0.2 nM), 2 h, r.t., HBSS + 1% BSA
T1 construct: endogenous in cells; host or cells: PC-3 cells
T1 sequence (P30550 whole entry): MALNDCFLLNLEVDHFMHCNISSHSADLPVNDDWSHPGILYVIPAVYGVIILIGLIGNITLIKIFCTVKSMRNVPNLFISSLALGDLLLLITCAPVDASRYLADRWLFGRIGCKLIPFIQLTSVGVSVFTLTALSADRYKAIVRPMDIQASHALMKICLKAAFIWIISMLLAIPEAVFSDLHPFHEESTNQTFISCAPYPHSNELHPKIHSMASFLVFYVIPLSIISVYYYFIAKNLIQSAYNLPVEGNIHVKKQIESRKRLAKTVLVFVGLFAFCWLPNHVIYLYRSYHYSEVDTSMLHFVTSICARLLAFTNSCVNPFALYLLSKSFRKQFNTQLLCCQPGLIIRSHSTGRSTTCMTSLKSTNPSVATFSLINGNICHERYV
Procedure: The reference ligand for IC50 studies ([D-3-[^125I]I-Tyr^6]MJ9) is prepared according to a previously published procedure. Briefly, 0.2 mg of [D-Tyr^6]MJ9 are dissolved in 20 μL Tracepur water and 280 μL TRIS buffer (25 mm TRIS HCl, 0.4 M NaCl, pH=7.9). After addition of the solution to a vial containing 150 μg Iodo-Gen® (1,3,4,6-Tetrachloro-3α,6α-diphenylglycouril, surface-bound), 5.0 μL (16 MBq) [^125I]Nal(74 TBq/mmol, 3.1 GBq/mL, 40 mM NaOH, Hartmann Analytic, Braunschweig, Germany) are added.
The GRPR-positive PC-3 cells are cultured in Dublecco modified Eagle medium/Nutrition Mixture F-12 with Glutamax-I (1:1) (Invitrigon), supplemented with 10% fetal calf serum and maintained at 37° C. in a humidified 5% CO2 atmosphere.
After removal of the culture medium, the cells are washed once with 500 μL of HBSS (Hank's balanced salt solution, Biochrom, Berlin, Germany, with addition of 1% bovine serum albumin (BSA)) and left in 200 μL HBSS (1% BSA) for 9 min at room temperature for equilibration. Next, 25 μL per well of solutions, containing either HBSS (1% BSA) as control or the respective ligand in increasing concentration (10^−10 M-10^−4 M in HBSS), are added with subsequent addition of 25 μL of [D-3-[^125I]I-Tyr^6]MJ9 (2.0 nM) in HBSS (1% BSA).
All experiments are performed in triplicate for each concentration. After 2 h incubation at room temperature, the experiment is terminated by removal of the medium and consecutive rinsing with 300 μL of HBSS. The media of both steps are combined in one fraction and represent the amount of free radiolabeled reference. Afterwards, the cells are lysed with 300 μL of 1 M NaOH for at least 15 min and united with the 300 μL NaOH of the following washing step. Quantification of bound and free radiolabeled reference is accomplished in a γ-counter.
IC50 determination for each ligand was repeated twice.

[2] = Plasma studies: metabolic stability in vitro in human plasma (radio RP-HPLC); format: in vitro ADME
Procedure: Metabolic stability in vitro was determined applying a procedure published by Linder et al. that was slightly modified. Immediately after labeling, human (200 μL) or murine (100 μL) plasma was added and the mixture was incubated at 37° C. for 72±2 h (or 6±0.5 h). Proteins were precipitated by treatment with ice-cold EtOH (150 μL [human], 100 μL [murine]) and ice-cold MeCN (450 μL [human], 300 μL [murine]), followed by centrifugation for 20 min at 13000 rpm. The supernatants were decanted and further analyzed using radio RP-HPLC. […]

SMILES	IC50 [1]	Amount of intact tracer after incubation in human plasma for 72 ± 2 h (n = 2) [2]
CC(C)C[C@H](NC(=O)C[C@H](O)[C@H](CC(C)C)NC(=O)[C@H](Cc1c[nH]cn1)NC(=O)CNC(=O)[C@@H](NC(=O)[C@H](C)NC(=O)[C@H](Cc1csc2ccccc12)NC(=O)[C@H](CCC(N)=O)NC(=O)[C@@H](Cc1ccccc1)NC(=O)CN1CCC(NC(=O)CN2CCN(CC(=O)O)CCN(CC(=O)O)CCN(CC(=O)O)CC2)CC1)C(C)C)C(N)=O [[^natGa]DOTA-[Bta^8]MJ9, metal not drawn] ({DOTA}-[X1][dF]Q[Bta]AVGH[Sta]L-NH2)	3.06 ± 0.15 nM	
CC(C)C[C@H](NC(=O)C[C@H](O)[C@H](CC(C)C)NC(=O)[C@H](Cc1c[nH]cn1)NC(=O)CNC(=O)[C@@H](NC(=O)[C@H](CO)NC(=O)[C@H](Cc1c[nH]c2ccccc12)NC(=O)[C@H](CCC(N)=O)NC(=O)[C@@H](Cc1ccccc1)NC(=O)CN1CCC(NC(=O)CN2CCN(CC(=O)O)CCN(CC(=O)O)CCN(CC(=O)O)CC2)CC1)C(C)C)C(N)=O [DOTA-[Ser^9]MJ9] ({DOTA}-[X1][dF]QWSVGH[Sta]L-NH2)		9.8 ± 4.3
CC(C)C[C@H](NC(=O)C[C@H](O)[C@H](CC(C)C)NC(=O)[C@H](Cc1c[nH]cn1)NC(=O)CN(C)C(=O)[C@@H](NC(=O)[C@H](C)NC(=O)[C@H](Cc1csc2ccccc12)NC(=O)[C@H](CCC(N)=O)NC(=O)[C@@H](Cc1ccccc1)NC(=O)CN1CCC(NC(=O)CN2CCN(CC(=O)O)CCN(CC(=O)O)CCN(CC(=O)O)CC2)CC1)C(C)C)C(N)=O [DOTA-[Bta^8, N—Me-Gly^11]MJ9] ({DOTA}-[X1][dF]Q[Bta]AV[Sar]H[Sta]L-NH2)		3.0 ± 0.2
CC(C)C[C@H](NC(=O)C[C@H](O)[C@H](CC(C)C)NC(=O)[C@H](Cc1c[nH]cn1)NC(=O)CN(C)C(=O)[C@@H](NC(=O)[C@H](C)NC(=O)[C@](C)(Cc1c[nH]c2ccccc12)NC(=O)[C@H](CCC(N)=O)NC(=O)[C@@H](Cc1ccccc1)NC(=O)CN1CCC(NC(=O)CN2CCN(CC(=O)O)CCN(CC(=O)O)CCN(CC(=O)O)CC2)CC1)C(C)C)C(N)=O [DOTA-[α-Me-Trp^8, N—Me-Gly^11]MJ9]		14.3 ± 1.2
CC(C)C[C@H](NC(=O)C[C@H](O)[C@H](CC(C)C)NC(=O)[C@H](Cc1c[nH]cn1)NC(=O)CNC(=O)[C@@H](NC(=O)[C@H](C)NC(=O)[C@](C)(Cc1c[nH]c2ccccc12)NC(=O)[C@H](CCC(N)=O)NC(=O)[C@@H](Cc1ccccc1)NC(=O)CN1CCC(NC(=O)CN2CCN(CC(=O)O)CCN(CC(=O)O)CCN(CC(=O)O)CC2)CC1)C1CCCC1)C(N)=O [DOTA-[α-Me-Trp^8, Cpg^10]MJ9] ({DOTA}-[X1][dF]Q[αMeW]A[Gly(cPent)]GH[Sta]L-NH2)		25.5 ± 1.9
CC(C)C[C@H](NC(=O)C[C@H](O)[C@H](CC(C)C)NC(=O)[C@H](Cc1c[nH]cn1)NC(=O)CNC(=O)[C@@H](NC(=O)[C@H](C)NC(=O)[C@H](Cc1c[nH]c2ccccc12)NC(=O)[C@H](CCO)NC(=O)[C@@H](Cc1ccccc1)NC(=O)CN1CCC(NC(=O)CN2CCN(CC(=O)O)CCN(CC(=O)O)CCN(CC(=O)O)CC2)CC1)C1CCCCC1)C(N)=O [DOTA-[Hse^7, Chg^10]MJ9] ({DOTA}-[X1][dF][hSer]WA[Chg]GH[Sta]L-NH2)		33.4 ± 1.0
CCCC[C@H](NC(=O)[C@H](Cc1ccccc1)NC(=O)[C@H](Cc1c[nH]cn1)NC(=O)CCNC(=O)[C@@H](NC(=O)[C@H](C)NC(=O)[C@H](Cc1c[nH]c2ccccc12)NC(=O)[C@H](CCC(N)=O)NC(=O)[C@@H](Cc1ccccc1)NC(=O)CN1CCN(CC(=O)O)CCN(CC(=O)O)CCN(CC(=O)O)CC1)C(C)C)C(N)=O [UL, reference compound] ({DOTA}-[dF]QWAV[βAla]HF[Nle]-NH2)		4.3 ± 0.2
CC(C)C[C@H](NC(=O)C[C@H](O)[C@H](CC(C)C)NC(=O)[C@H](Cc1c[nH]cn1)NC(=O)CNC(=O)[C@@H](NC(=O)[C@H](C)NC(=O)[C@](C)(Cc1c[nH]c2ccccc12)NC(=O)[C@H](CCC(N)=O)NC(=O)[C@@H](Cc1ccccc1)NC(=O)[C@H]1CC[C@H](CNC(=O)CN2CCN(CC(=O)O)CCN(CC(=O)O)CCN(CC(=O)O)CC2)CC1)C(C)C)C(N)=O [DOTA-[Txa^5, α-Me-Trp^8]MJ9]		30.6 ± 0.8
CC(C)C[C@H](NC(=O)C[C@H](O)[C@H](CC(C)C)NC(=O)[C@H](Cc1c[nH]cn1)NC(=O)CNC(=O)[C@@H](NC(=O)[C@H](C)NC(=O)[C@](C)(Cc1c[nH]c2ccccc12)NC(=O)[C@H](CCC(N)=O)NC(=O)[C@@H](Cc1ccccc1)NC(=O)CN1CCC(NC(=O)[C@@H](CN)NC(=O)[C@@H](CCCN)NC(=O)CN2CCN(CC(=O)O)CCN(CC(=O)O)CCN(CC(=O)O)CC2)CC1)C(C)C)C(N)=O [DOTA-orn^3-dap^4-[α-Me-Trp^8]MJ9] ({DOTA}-[dOrn][dDap][X1][dF]Q[αMeW]AVGH[Sta]L-NH2)		16.6 ± 0.8
CC(C)C[C@H](NC(=O)C[C@H](O)[C@H](CC(C)C)NC(=O)[C@H](Cc1c[nH]cn1)NC(=O)CNC(=O)[C@@H](NC(=O)[C@H](C)NC(=O)[C@H](Cc1csc2ccccc12)NC(=O)[C@H](CCC(N)=O)NC(=O)[C@@H](Cc1ccccc1)NC(=O)[C@H]1CC[C@H](CNC(=O)CN2CCN(CC(=O)O)CCN(CC(=O)O)CCN(CC(=O)O)CC2)CC1)C(C)C)C(N)=O [DOTA-[Txa^5, Bta^8]MJ9] ({DOTA-Trx}-[dF]Q[Bta]AVGH[Sta]L-NH2)		27.1 ± 2.1
CC(C)C[C@H](NC(=O)C[C@H](O)[C@H](CC(C)C)NC(=O)[C@H](Cc1c[nH]cn1)NC(=O)CNC(=O)[C@@H](NC(=O)[C@H](C)NC(=O)[C@H](Cc1c[nH]c2ccccc12)NC(=O)[C@H](CCC(N)=O)NC(=O)[C@@H](Cc1ccccc1)NC(=O)CN1CCC(NC(=O)[C@@H](CN)NC(=O)[C@@H](CCCN)NC(=O)CN2CCN(CC(=O)O)CCN(CC(=O)O)CCN(CC(=O)O)CC2)CC1)C(C)C)C(N)=O [DOTA-orn^3-dap^4-MJ9] ({DOTA}-[dOrn][dDap][X1][dF]QWAVGH[Sta]L-NH2)		5.9 ± 0.5
CC(C)C[C@H](NC(=O)C[C@H](O)[C@H](CC(C)C)NC(=O)[C@H](Cc1c[nH]cn1)NC(=O)CNC(=O)[C@@H](NC(=O)[C@H](C)NC(=O)[C@H](Cc1c[nH]c2ccccc12)NC(=O)[C@H](CCC(N)=O)NC(=O)[C@@H](Cc1ccccc1)NC(=O)CN1CCC(NC(=O)CN2CCN(CC(=O)O)CCN(CC(=O)O)CCN(CC(=O)O)CC2)CC1)C1CCCCC1)C(N)=O [DOTA-[Chg^10]MJ9] ({DOTA}-[X1][dF]QWA[Chg]GH[Sta]L-NH2)		8.4 ± 0.9
CC(C)C[C@H](NC(=O)C[C@H](O)[C@H](CC(C)C)NC(=O)[C@H](Cc1c[nH]cn1)NC(=O)CNC(=O)[C@@H](NC(=O)[C@H](C)NC(=O)[C@H](Cc1c[nH]c2ccccc12)NC(=O)[C@H](CCC(N)=O)NC(=O)[C@@H](Cc1ccccc1)NC(=O)CN1CCC(NC(=O)CN2CCN(CC(=O)O)CCN(CC(=O)O)CCN(CC(=O)O)CC2)CC1)C1CCCC1)C(N)=O [DOTA-[Cpg^10]MJ9] ({DOTA}-[X1][dF]QWA[Gly(cPent)]GH[Sta]L-NH2)		25.3 ± 1.4
CC(C)C[C@H](NC(=O)C[C@H](O)[C@H](CC(C)C)NC(=O)[C@H](Cc1c[nH]cn1)NC(=O)CNC(=O)[C@@H](NC(=O)[C@H](CO)NC(=O)[C@H](Cc1csc2ccccc12)NC(=O)[C@H](CCC(N)=O)NC(=O)[C@@H](Cc1ccccc1)NC(=O)CN1CCC(NC(=O)CN2CCN(CC(=O)O)CCN(CC(=O)O)CCN(CC(=O)O)CC2)CC1)C(C)C)C(N)=O [DOTA-[Bta^8, Ser^9]MJ9] ({DOTA}-[X1][dF]Q[Bta]SVGH[Sta]L-NH2)		1.5 ± 0.2
CC(C)C[C@H](NC(=O)C[C@H](O)[C@H](CC(C)C)NC(=O)[C@H](Cc1c[nH]cn1)NC(=O)CNC(=O)[C@@H](NC(=O)[C@H](C)NC(=O)[C@H](Cc1csc2ccccc12)NC(=O)[C@H](CCC(N)=O)NC(=O)[C@@H](CCCNC(=N)N)NC(=O)CN1CCC(NC(=O)CN2CCN(CC(=O)O)CCN(CC(=O)O)CCN(CC(=O)O)CC2)CC1)C(C)C)C(N)=O [DOTA-[arg^6, Bta^8]MJ9] ({DOTA}-[X1][dR]Q[Bta]AVGH[Sta]L-NH2)		6.6 ± 2.0
